Test results from patent publication US9770446B2, “Piperidine urea derivatives” (MERCK PATENT GMBH, priority 2013, dated 2017).

Experiments:
His-tagged Parp-1 = target: T1, His-tagged Parp-1 (Homo sapiens, UniProt P09874); experiment: PARP-1 autoparsylation HTRF assay; type: biochemical
T1 construct: purchased Enzo Life Sciences GmbH, Lörrach, Germany
Description: Description of the PARP1 Assay
Biochemical Activity Testing of PARP-1: Autoparsylation Assay
The autoparsylation assay is run in two steps: the enzymatic reaction in which His-tagged Parp-1 transfers biotinylated ADP-ribose/ADP-ribose to itself from biotinylated NAD/NAD as co-substrate and the detection reaction where a time resolved FRET between cryptate labelled anti-His antibody bound to the His tag of the enzyme and Xlent® labelled-streptavidin bound the biotin-parsylation residue is analysed. The autoparsylation activity is detectable directly via the increase in HTRF signal.
The autoparsylation assay is performed as 384-well HTRF® (Cisbio, Codolet, France) assay format in Greiner low volume nb 384-well microtiter plates. 35 nM His-tagged Parp-1 (human, recombinant, Enzo Life Sciences GmbH, Lörrach, Germany) and a mixture of 125 nM bio-NAD (Biolog, Life science Inst., Bremen, Germany) and 800 nM NAD as co-substrate are incubated in a total volume of 6 μl (100 mM Tris/HCl, 4 mM Mg-chloride, 0.01% IGEPAL® CA630, 1 mM DTT, 0.5% DMSO, pH 8, 13 ng/μl activated DNA (BPS Bioscience, San Diego, US)) in the absence or presence of the test compound (10 dilution concentrations) for 150 min at 23° C. The reaction is stopped by the addition of 4 μl of the Stop/detection solution (70 nM SA-Xlent® (Cisbio, Codolet, France), 2.5 nM Anti-His-K® (Eu-labelled anti-His, Cisbio, Codolet, France) in 50 mM HEPES, 400 mM KF, 0.1% BSA, 20 mM EDTA, pH 7.0). After 1 h incubation at room temperature the HTRF iss measured with an Envision multimode reader (Perkin Elmer LAS Germany GmbH) at excitation wavelength 340 nm (laser mode) and emission wavelengths 615 nm and 665 nm. The ratio of the emission signals is determined. The full value used is the inhibitor-free reaction. The pharmacological zero value used is Olaparib (LClabs, Woburn, US) in a final concentration of 1 μM. The inhibitory values (IC50) are determined using either the program Symyx Assay Explorer® or Condosseo® from GeneData.

[1] = target: T2, GST-tagged Tnks-2 (873-1166 aa) (Homo sapiens, UniProt Q9H2K2); experiment: TNKS2 activity ELISA (autoparsylation assay); type: biochemical
T2 construct: GST-tagged Tnks-2 (873-1166 aa, prepared in-house); made in house
Outline: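 Each GST-tagged enzyme (20 ng/well) was captured overnight at 4 °C on glutathione plates, then auto-ADP-ribosylated with 10 μM biotin-NAD for 1 h at 30 °C, pH 7.7, 0.5% DMSO, compound at 10 concentrations. Streptavidin-HRP chemiluminescence measured the signal. IC50 relative to inhibitor-free reaction, with 5 μM XAV-939 defining zero.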

T1 sequence (P09874 whole entry): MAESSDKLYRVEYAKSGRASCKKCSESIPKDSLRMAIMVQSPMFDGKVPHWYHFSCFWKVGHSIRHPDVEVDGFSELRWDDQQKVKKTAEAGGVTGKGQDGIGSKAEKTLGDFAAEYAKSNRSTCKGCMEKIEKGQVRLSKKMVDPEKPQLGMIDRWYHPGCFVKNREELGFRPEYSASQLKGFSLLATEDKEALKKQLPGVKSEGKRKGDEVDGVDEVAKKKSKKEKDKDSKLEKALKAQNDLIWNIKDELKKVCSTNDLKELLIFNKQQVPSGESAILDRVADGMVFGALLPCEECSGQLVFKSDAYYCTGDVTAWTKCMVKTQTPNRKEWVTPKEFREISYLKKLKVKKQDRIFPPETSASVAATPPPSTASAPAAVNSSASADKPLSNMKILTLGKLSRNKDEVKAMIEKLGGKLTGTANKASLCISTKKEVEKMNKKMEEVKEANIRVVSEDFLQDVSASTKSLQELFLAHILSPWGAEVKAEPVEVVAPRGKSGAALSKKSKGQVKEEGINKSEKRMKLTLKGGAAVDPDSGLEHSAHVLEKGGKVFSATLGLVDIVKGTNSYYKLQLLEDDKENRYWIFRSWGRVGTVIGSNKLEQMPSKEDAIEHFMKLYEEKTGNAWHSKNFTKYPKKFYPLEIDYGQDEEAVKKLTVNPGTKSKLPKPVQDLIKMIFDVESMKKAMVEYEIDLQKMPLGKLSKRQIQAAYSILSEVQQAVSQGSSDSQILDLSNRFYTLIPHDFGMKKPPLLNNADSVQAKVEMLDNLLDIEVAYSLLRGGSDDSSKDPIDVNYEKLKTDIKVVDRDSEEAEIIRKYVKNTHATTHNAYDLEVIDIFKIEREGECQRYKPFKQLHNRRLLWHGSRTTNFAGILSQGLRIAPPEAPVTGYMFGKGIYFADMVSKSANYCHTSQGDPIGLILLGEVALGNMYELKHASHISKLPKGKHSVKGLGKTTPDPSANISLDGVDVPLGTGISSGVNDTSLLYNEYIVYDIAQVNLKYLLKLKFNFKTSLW
T2 sequence (Q9H2K2 873-1166): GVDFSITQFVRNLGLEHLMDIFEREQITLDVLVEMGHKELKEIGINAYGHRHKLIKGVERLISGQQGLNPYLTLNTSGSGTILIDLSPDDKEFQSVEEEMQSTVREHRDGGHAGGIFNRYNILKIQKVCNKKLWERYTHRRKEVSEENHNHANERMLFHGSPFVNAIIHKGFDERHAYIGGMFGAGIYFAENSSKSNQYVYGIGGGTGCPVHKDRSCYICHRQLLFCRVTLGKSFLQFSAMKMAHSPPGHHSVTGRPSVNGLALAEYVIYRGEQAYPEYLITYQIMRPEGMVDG

| Compound | IC50 (His-tagged Parp-1) | IC50 [1] |
| --- | --- | --- |
| COc1ccc(N(C)C(=O)N2CCC(C(=O)c3cccc(OC)c3)CC2)cc1 [Compound A27, 4-(3-methoxy-benzoyl)-piperidine-1-carboxylic acid (4-methoxy-phenyl)methyl-amide] | 3 to 50 µM | < 300 nM |
| COc1ccc(C(=O)C2CCN(C(=O)N(C)c3ccc(OC)cc3)CC2)cc1 [Compound A6, 4-(4-methoxy-benzoyl)-piperidine-1-carboxylic acid (4-methoxy-phenyl)methyl-amide] | 3 to 50 µM | < 300 nM |
| COc1ccc(C(=O)C2CCN(C(=O)N3CCc4ccccc43)CC2)cc1 [Compound A18, (2,3-dihydro-indol-1-yl)-[4-(4-methoxy-benzoyl)-piperidin-1-yl]-methanone] | 3 to 50 µM | < 300 nM |
| CCN(C(=O)N1CCC(C(=O)c2ccccc2)CC1)c1ccc(OC)cc1 [Compound A14, 4-benzoyl-piperidine-1-carboxylic acid ethyl-(4-methoxy-phenyl)-amide] | 3 to 50 µM | < 300 nM |
| CCN(C(=O)N1CCC(C(=O)c2ccc(OC)c(C)c2)CC1)c1ccc(OC)cc1 [Compound A24, 4-(4-methoxy-3-methyl-benzoyl)-piperidine-1-carboxylic acid ethyl-(4-methoxy-phenyl)-amide] | 3 to 50 µM | < 300 nM |
| CCN(C(=O)N1CCC(C(=O)c2cccc(OC)c2)CC1)c1ccc(OC)cc1 [Compound A28, 4-(3-methoxy-benzoyl)-piperidine-1-carboxylic acid ethyl-(4-methoxy-phenyl)amide] | 3 to 50 µM | < 300 nM |
| Cc1ccc(C(=O)C2CCN(C(=O)N3CCc4ccccc43)CC2)cc1 [Compound A17, (2,3-dihydro-indol-1-yl)-[4-(4-methyl-benzoyl)-piperidin-1-yl]-methanone] | 3 to 50 µM | < 300 nM |
| O=C(c1ccccc1)C1CCN(C(=O)N2CCc3ccccc32)CC1 [Compound A16, (4-benzoyl-piperidin-1-yl)-(2,3-dihydro-indol-1-yl)-methanone] | 3 to 50 µM | < 300 nM |
| CN(C(=O)N1CCC(C(=O)c2ccc(NS(C)(=O)=O)cc2)CC1)c1ccccc1 [Compound A38, 4-(4-methanesulfonylamino-benzoyl)-piperidine-1-carboxylic acid methyl-phenyl-amide] | 3 to 50 µM | < 300 nM |
| COc1ccc(N(C)C(=O)N2CCC(C(=O)c3ccc(F)cc3)CC2)cc1 [Compound A8, 4-(4-fluoro-benzoyl)-piperidine-1-carboxylic acid (4-methoxy-phenyl)-methylamide] | 3 to 50 µM | < 300 nM |
| COc1ccc(N(C)C(=O)N2CCC(C(=O)c3ccccc3)CC2)cc1 [Compound A4, 4-benzoyl-piperidine-1-carboxylic acid (4-methoxy-phenyl)-methyl-amide] | 3 to 50 µM | < 300 nM |
| COc1ccc(N(C)C(=O)N2CCC(C(=O)c3cccc(C)c3)CC2)cc1 [Compound A25, 4-(3-methyl-benzoyl)-piperidine-1-carboxylic acid (4-methoxy-phenyl)methyl-amide] | 3 to 50 µM | < 300 nM |
| Cc1ccc(N(C)C(=O)N2CCC(C(=O)c3ccccc3)CC2)cc1 [Compound A2, 4-benzoyl-piperidine-1-carboxylic acid methyl-p-tolyl-amide] | 3 to 50 µM | < 300 nM |
| COc1ccc(N(CCO)C(=O)N2CCC(C(=O)c3ccccc3)CC2)cc1 [Compound A15, 4-benzoyl-piperidine-1-carboxylic acid (2-hydroxy-ethyl)-(4-methoxy-phenyl)amide] | 3 to 50 µM | < 300 nM |
| CCN(C(=O)N1CCC(C(=O)c2cccc(C)c2)CC1)c1ccc(OC)cc1 [Compound A26, 4-(3-methyl-benzoyl)-piperidine-1-carboxylic acid ethyl-(4-methoxy-phenyl)amide] | 3 to 50 µM | < 300 nM |
| Cc1cccc(N(C)C(=O)N2CCC(C(=O)c3ccccc3)CC2)c1 [Compound A1, 4-benzoyl-piperidine-1-carboxylic acid methyl-m-tolyl-amide] | 3 to 50 µM | < 300 nM |
| CCOC(=O)CN(C(=O)N1CCC(C(=O)c2ccc(OC)cc2)CC1)c1ccccc1 [Compound A40, {[4-(4-methoxy-benzoyl)-piperidine-1-carbonyl]-phenyl-amino}-acetic acid ethyl ester] | 3 to 50 µM | < 300 nM |
| COc1ccc(N(C)C(=O)N2CCC(C(=O)c3ccc(OC)c(F)c3)CC2)cc1 [Compound A29, 4-(3-fluoro-4-methoxy-benzoyl)-piperidine-1-carboxylic acid (4-methoxy-phenyl)-methyl-amide] | 3 to 50 µM | < 300 nM |
| COc1ccc(N(C)C(=O)N2CCC(C(=O)c3cccc(F)c3)CC2)cc1 [Compound A7, 4-(3-fluoro-benzoyl)-piperidine-1-carboxylic acid (4-methoxy-phenyl)-methylamide] | 3 to 50 µM | < 300 nM |
| CN(C(=O)N1CCC(C(=O)c2ccccc2)CC1)c1ccc(F)cc1 [Compound A13, 4-benzoyl-piperidine-1-carboxylic acid (4-fluoro-phenyl)-methyl-amide] | 3 to 50 µM | < 300 nM |
| COc1ccc(N(C)C(=O)N2CCC(C(=O)c3ccc(C)cc3)CC2)cc1 [Compound A5, 4-(4-methyl-benzoyl)-piperidine-1-carboxylic acid (4-methoxy-phenyl)-methylamide] | 3 to 50 µM | < 300 nM |
